Laboratory results from ChEMBL document CHEMBL5241067, “An insight in anti-malarial potential of indole scaffold: A review” (Eur J Med Chem, 2021).
In brackets after ≈: the same amount, converted by molar mass. Each block holds one molecule with its values, some of them ahead of it.

Key:
Plasmodium falciparum [1] = experiment: Antiplasmodial activity against Plasmodium falciparum DD2 assessed as growth inhibition; type: functional, organism-based
Plasmodium falciparum [2] = experiment: Antiplasmodial activity against Plasmodium falciparum NF54 assessed as growth inhibition; type: functional, organism-based
Plasmodium berghei = experiment: In vivo antimalarial activity against Plasmodium berghei infected in mouse assessed as supression of parasitemia at 20 to 25 mg/kg, po measured for 4 days; type: functional; details: dose 20-25 mg/kg, time 4 day
Plasmodium falciparum [3] = experiment: Antiplasmodial activity against multidrug resistant Plasmodium falciparum K1 assessed as growth inhibition; type: functional, organism-based
[4] = Cytotoxicity against HEK293 cells; type: toxicity, cell-based; details: human
Plasmodium falciparum [5] = experiment: Antimalarial activity against […] Plasmodium falciparum D6 assessed as growth inhibition; type: functional, organism-based
Plasmodium falciparum [6] = experiment: Antimalarial activity against chloroquine-resistant Plasmodium falciparum W2 assessed as growth inhibition; type: functional, organism-based
Plasmodium falciparum [7] = experiment: Antiplasmodial activity against Plasmodium falciparum; type: functional, organism-based
KB = experiment: Cytotoxicity against human KB cells; type: functional; details: read-out: ED50 (the source's name)
Plasmodium falciparum [8] = experiment: Antiplasmodial activity against multidrug-resistant Plasmodium falciparum assessed as growth inhibition; type: functional
Plasmodium falciparum [9] = experiment: Antiplasmodial activity against chloroquine-resistant Plasmodium falciparum DD2 assessed as growth inhibition; type: functional, organism-based
Plasmodium falciparum [10] = experiment: Antiplasmodial activity against chloroquine, pyrimethamine and mefloquine-resistant Plasmodium falciparum assessed as growth inhibition; type: functional, organism-based

SMILES: O=C1c2cc(F)ccc2-n2c1nc1ccccc1c2=O
- IC50 (Plasmodium falciparum [1]): 0.1 µM
- IC50 (Plasmodium falciparum [2]): 0.057 µM

SMILES: Cn1c2c3cc(Br)ccc3nc-2cc2cc(Br)ccc21
- Activity (Plasmodium berghei): 89%
- IC50 (Plasmodium falciparum [3]): 0.05 µM

SMILES: CC1(C)[C@H](Cc2[nH]c3ccccc3c2CC[N+](C)(C)O)O[C@]23OC[C@H](O)[C@H]2OC(=O)[C@]13O
- IC50 [4]: 0.08 µM

SMILES: N#Cc1c(-c2ccc(F)c(F)c2)cc(-c2ccc(Br)cc2)nc1-c1c[nH]c2ccccc12
- IC50 (Plasmodium falciparum [5]): 6.6 µM
- IC50 (Plasmodium falciparum [6]): 4.77 µM

SMILES: O=C1c2cc(Br)ccc2-n2c1nc1ccc(Cl)cc1c2=O
- IC50 (Plasmodium falciparum [1]): 0.123 µM
- IC50 (Plasmodium falciparum [2]): 0.036 µM

SMILES: Cc1cc(-c2cc(-c3ccccc3)nc(-c3c[nH]c4ccccc34)c2C#N)cc(C)c1C
- IC50 (Plasmodium falciparum [5]): 1.6 µM
- IC50 (Plasmodium falciparum [6]): 2.7 µM

SMILES: N#Cc1c(-c2ccc(F)cc2)cc(-c2ccccc2)nc1-c1c[nH]c2ccccc12
- IC50 (Plasmodium falciparum [5]): 1.47 µM
- IC50 (Plasmodium falciparum [6]): 2.99 µM

- IC50 (Plasmodium falciparum [7]): 3.4 µM
SMILES: O=C1NCCc2c[nH]c3ccc4c(c23)[C@@H]1[C@H](c1ccc2c(c1)OCO2)O4
- EC50 (KB): 23.9 µM

SMILES: O=C1c2cc(Br)ccc2-n2c1nc1cc(Cl)ccc1c2=O
- IC50 (Plasmodium falciparum [1]): 0.238 µM
- IC50 (Plasmodium falciparum [2]): 0.036 µM

SMILES: N#Cc1c(-c2ccc(F)c(F)c2)cc(-c2ccc(F)cc2)nc1-c1c[nH]c2ccccc12
- IC50 (Plasmodium falciparum [5]): 6.78 µM
- IC50 (Plasmodium falciparum [6]): 3.82 µM

SMILES: N#Cc1c(-c2ccc(F)c(F)c2)cc(-c2ccccc2)nc1-c1c[nH]c2ccccc12
- IC50 (Plasmodium falciparum [5]): 1.56 µM
- IC50 (Plasmodium falciparum [6]): 1.16 µM

SMILES: O=C1c2cc([N+](=O)[O-])ccc2-n2c1nc1cc(Cl)ccc1c2=O
- IC50 (Plasmodium falciparum [1]): 0.031 µM
- IC50 (Plasmodium falciparum [2]): 0.033 µM

SMILES: Cc1cc(-c2cc(-c3ccc(F)cc3)nc(-c3c[nH]c4ccccc34)c2C#N)cc(C)c1C
- IC50 (Plasmodium falciparum [5]): 5.4 µM
- IC50 (Plasmodium falciparum [6]): 2.96 µM

SMILES: O=C1c2ccccc2-n2c1nc1ccccc1c2=O [TRYPTANTHRIN]
- Activity (Plasmodium falciparum [8]): 100 ng/mL
- IC50 (Plasmodium falciparum [9]): 0.114 µM
- IC50 (Plasmodium falciparum [10]): 0.069 µg/mL (≈ 0.278 µM)
- IC50 (Plasmodium falciparum [2]): 0.288 µM
